13 compounds from ChEMBL document CHEMBL2390823, “Aryl uracil inhibitors of hepatitis C virus NS5B polymerase: synthesis and characterization of analogs with a fused 5,6-bicyclic ring motif” (Bioorg Med Chem Lett, 2013) can be followed below.

The IC50 is the concentration at which inhibition is half-maximal. Low values mean greater potency, high ones weaker potency. For orientation: EC50 means the concentration needed to bring the measured effect to its halfway point. A word on the half-life: it is the time in which the quantity being followed falls by half. Higher therefore signals slow decline. Usually Tmax stands for the time from dosing to the highest level. What is called clearance is a measure of how efficiently the substance is removed, as volume per time. A lower clearance goes with inefficient removal. As a reminder, the Cmax is the highest concentration seen after dosing. The term AUC(0-inf) denotes total exposure, with the tail of the curve extrapolated. A higher AUC(0-inf) goes with more exposure. Usually AUC stands for concentration integrated over time. Read a high AUC as high exposure.

Series [1] concerns Hepatitis C virus. The series can be described thus: Inhibition of Hepatitis C virus genotype 1b NS5B polymerase. Also noted: species or system Hepatitis C virus subtype 1b.
The subject of series [2] is Hepatitis C virus. The series can be described thus: Antiviral activity against Hepatitis C virus genotype 1b infected in human HuH7 cells in presence of 5% fetal calf serum. Type of series: functional, organism-based, Hepacivirus hominis. To be noted: Huh-7.
For series [3], the system named is Hepatitis C virus. In words: Antiviral activity against Hepatitis C virus genotype 1a infected in human HuH7 cells in presence of 5% fetal calf serum. Type of series: functional, organism-based, Hepacivirus hominis. As to conditions: subtype 1a, Huh-7.
Series [4] can be described thus: (§1) Half life in rat at 5 mg/kg, po. Type of series: ADME, organism-based. On the set-up: dose 5 mg/kg, route oral. To be noted: in vivo.
In series [5] the test system is Hepatitis C virus. The series can be described thus: Antiviral activity against Hepatitis C virus genotype 1b infected in human HuH7 cells in presence of 40% human plasma. As to conditions: Huh-7, Plasma. Type of series: functional, organism-based, Hepacivirus hominis.
Series [6] can be described thus: (§2) Tmax in rat at 5 mg/kg, po. Type of series: ADME, organism-based. Also noted: dose 5 mg/kg, route oral. As to conditions: in vivo.
A short description of series [7]: Inhibition of Hepatitis C virus genotype 1a NS5B polymerase. Also noted: species or system Hepatitis C virus subtype 1a.
A short description of series [8]: (§3) Plasma clearance in rat at 5 mg/kg, iv. Type of series: ADME, organism-based. On the set-up: dose 5 mg/kg, route intravenous. As to conditions: plasma.
Series [9] can be described thus: (§4) Cmax in rat at 5 mg/kg, po. As to conditions: in vivo. Type of series: ADME, organism-based. On the set-up: dose 5 mg/kg, route oral.
The nature of series [10]: Effective permeability of the compound by PAMPA. Type of series: ADME. To be noted: read-out: Peff.
Series [11] can be described thus: Half life in rat at 5 mg/kg, iv. Type of series: ADME, organism-based. Also noted: dose 5 mg/kg, route intravenous. As to conditions: in vivo.
Series [12] can be described thus: (§5) AUC (0 to infinity) in rat at 5 mg/kg, po. Also noted: dose 5 mg/kg, route oral, time infinity. To be noted: plasma. Type of series: ADME, organism-based, Plasma.
The nature of series [13]: (§6) Oral bioavailability in rat at 5 mg/kg. Type of series: ADME, organism-based. To be noted: in vivo.
Series [14] has as its system Rattus norvegicus. The series is described as §1. Type of series: ADME, organism-based. On the set-up: dose 5 mg/kg, route oral. To be noted: in vivo.
The subject of series [15] is Rattus norvegicus. The series is described as §2. Type of series: ADME, organism-based. On the set-up: dose 5 mg/kg, route oral. As to conditions: in vivo.
The subject of series [16] is Rattus norvegicus. Described as §3. Type of series: ADME, organism-based. Also noted: dose 5 mg/kg, route intravenous. As to conditions: in vivo.
For series [17], the system named is Rattus norvegicus. The series is described as §4. Type of series: ADME, organism-based. Also noted: dose 5 mg/kg, route oral. To be noted: in vivo.
Series [18] concerns Rattus norvegicus. The description is as §5. Type of series: ADME, organism-based, Plasma. Also noted: dose 5 mg/kg, route oral, time infinity. To be noted: in vivo.
The test system of series [19] is Rattus norvegicus. The series is described as §6. Type of series: ADME, organism-based. To be noted: in vivo.

As for `COc1c(-c2ccc3c(CNS(C)(=O)=O)csc3c2)cc(-n2ccc(=O)[nH]c2=O)cc1C(C)(C)C`, the values for the IC50 in series [1] and in [7] were 0.01 µM and 0.005 µM, respectively. Further, the figures for the half-maximal effective concentration (EC50) in [2], in [3] and in series [5] were 0.003 µM, 0.027 µM and 0.046 µM, respectively. In addition, the half-life in series [4] is 3.2 h; in series [11] it was 3.6 h. In addition, the time to peak (Tmax) in series [6] amounted to 0.5 h. This compound also gave a clearance in series [8] of 4.5 mL/min/kg. Moreover, the concentration in series [9] peaked (Cmax) at 1410 ng/mL. The Papp in [10] is 0.81 ×10⁻⁶ cm/s. In addition, the AUC(0-inf) in [12] turned out to be 9300 ng·h/mL. Moreover, in series [13], the bioavailability was 41%.
Consider `COc1c(-c2ccc3nc(NS(C)(=O)=O)sc3c2)cc(-n2ccc(=O)[nH]c2=O)cc1C(C)(C)C`, for which the IC50 in series [1] worked out at 0.045 µM; in [7] it was 0.019 µM. Further, the concentration for a half-maximal effect (EC50) in series [2] and in series [3] was more than 1 µM each time. Further, the Papp in series [10] was found to be 1.4 ×10⁻⁶ cm/s.
In the case of `COc1c(-c2ccc3c(CNS(C)(=O)=O)noc3c2)cc(-n2ccc(=O)[nH]c2=O)cc1C(C)(C)C`, the IC50 amounted to 0.51 µM in [1] and 0.54 µM in [7]. In addition, the EC50 in series [2] and in series [3] was more than 1 µM in each case.
`COc1c(-c2ccc3c(CNS(C)(=O)=O)coc3c2)cc(-n2ccc(=O)[nH]c2=O)cc1C(C)(C)C`: the values for the IC50 in [1] and in series [7] were 0.021 µM and 0.009 µM, respectively. The EC50 in [2] came to 0.022 µM; in series [3], 0.24 µM; in series [5], 0.26 µM.
For the compound `COc1c(-c2ccc3cc(CNS(C)(=O)=O)sc3c2)cc(-n2ccc(=O)[nH]c2=O)cc1C(C)(C)C`, the IC50 worked out at 0.245 µM in [1] and 0.18 µM in series [7]. Further, the values for the 50% effective concentration (EC50) in series [2], in series [3] and in series [5] were more than 1 µM, more than 1 µM and more than 10 µM, respectively. In addition, in [10], the Papp is 0.81 ×10⁻⁶ cm/s.
Regarding `COc1c(-c2ccc3c(c2)CC=C3C(C)(C)NS(C)(=O)=O)cc(-n2ccc(=O)[nH]c2=O)cc1C(C)(C)C`, the figures for the half-inhibitory concentration (IC50) in series [1] and in series [7] were 0.215 µM and 0.185 µM, respectively. The EC50 in series [2] was more than 1 µM; in series [3] it was 1 µM; in series [5] it was more than 1 µM. Besides, in series [10], the Papp came out at 4.06 ×10⁻⁶ cm/s.
For `COc1c(-c2ccc3c(c2)CCC3NNS(C)(=O)=O)cc(-n2ccc(=O)[nH]c2=O)cc1C(C)(C)C` (centres undefined), the IC50 is 0.047 µM in series [1] and 0.033 µM in [7]. The 50% effective concentration (EC50) in series [2] was more than 0.1 µM; in series [3], 0.14 µM; in series [5], 0.95 µM. The Papp in [10] was 0.24 ×10⁻⁶ cm/s.
As to `COc1c(-c2ccc3c(c2)CCC3(C)CNS(C)(=O)=O)cc(-n2ccc(=O)[nH]c2=O)cc1C(C)(C)C` (centres undefined), the IC50 in [1] was determined as 0.041 µM; in series [7], 0.016 µM. The EC50 turned out to be 0.089 µM in [2], 0.48 µM in series [3] and 0.56 µM in series [5]. For the same compound, the half-life in series [4] is 2.4 h; in [11] it was 2.3 h. In addition, the time of peak concentration (Tmax) in series [6] was 0.25 h. Also, the clearance in series [8] was 10.2 mL/min/kg. For the same compound, in [9], the concentration peaked (Cmax) at 1010 ng/mL. In series [12], this compound showed a total exposure AUC(0-inf) of 5100 ng·h/mL. Besides, in series [13], the bioavailability came out at 62%.
Regarding `COc1c(-c2ccc3c(c2)CCC3CNS(C)(=O)=O)cc(-n2ccc(=O)[nH]c2=O)cc1C(C)(C)C` (centres undefined), the half-maximal inhibitory concentration (IC50) was determined as 0.018 µM in series [1] and 0.008 µM in series [7]. For the same compound, the concentration giving a half-maximal response (EC50) worked out at 0.003 µM in series [2], 0.02 µM in series [3] and 0.013 µM in [5]. For the same compound, the half-life was 2.3 h in series [4] and 1.8 h in series [11]. Moreover, the Tmax in [6] came to 0.33 h. In [8], this compound gave a clearance of 7.5 mL/min/kg. In addition, the concentration in [9] peaked (Cmax) at 2360 ng/mL. Further, in series [10], the Papp was 8.93 ×10⁻⁶ cm/s. The compound further showed an AUC(0-inf) in series [12] of 13500 ng·h/mL. Also, the bioavailability in series [13] was determined as 119%.
Regarding `COc1c(C(=O)Nc2ccc(NS(C)(=O)=O)cc2)cc(N2CCC(=O)NC2=O)cc1C(C)(C)C`, the IC50 was found to be 0.022 µM in [1] and 0.011 µM in series [7]. In addition, the concentration for a half-maximal effect (EC50) is 0.027 µM in series [2], 0.051 µM in series [3] and 0.018 µM in series [5]. In [14], this compound came in with a t1/2 of 1 h. For the same compound, the Tmax in [15] is 0.33 h. The compound further showed a CL in [16] of 25.5 mL/min/kg. This compound also came in with a Cmax in series [17] of 30 ng/mL. In series [10], the Papp was found to be 0.22 ×10⁻⁶ cm/s. This compound also had a half-life in series [11] of 1.1 h. The area under the curve (AUC) in series [18] is 500 ng·h/mL. The same compound gave a F in series [19] of 1.4%.
Regarding `COc1c(-c2ccc3c(c2)CC=C3CN(C)S(C)(=O)=O)cc(-n2ccc(=O)[nH]c2=O)cc1C(C)(C)C`, the values for the IC50 in [1] and in series [7] were 0.02 µM and 0.007 µM, respectively. Further, the figures for the EC50 in [2], in series [3] and in [5] were 0.1 µM, 0.004 µM and 0.05 µM, respectively.
For `COc1c(-c2ccc3c(c2)CC/C3=N\NS(C)(=O)=O)cc(-n2ccc(=O)[nH]c2=O)cc1C(C)(C)C`, the IC50 in series [1] and in series [7] was 0.003 µM in each case. In addition, the half-maximal effective concentration (EC50) in series [2] was found to be 0.001 µM; in series [3] it was 0.002 µM; in series [5], 0.001 µM. The half-life is 3 h in series [4] and 2.8 h in [11]. Besides, in series [6], the Tmax stood at 2.5 h. In series [8], the clearance is 19.8 mL/min/kg. The same compound yielded a maximum concentration (Cmax) in series [9] of 120 ng/mL. Further, in series [10], the Papp worked out at 0.47 ×10⁻⁶ cm/s. In [12], this compound returned an AUC(0-inf) of 880 ng·h/mL. Further, in [13], the bioavailability was 18%.
Take `COc1c(-c2ccc3c(c2)CC=C3CNS(C)(=O)=O)cc(-n2ccc(=O)[nH]c2=O)cc1C(C)(C)C`: the IC50 in series [1] amounted to 0.011 µM; in series [7] it was 0.006 µM. Further, the EC50 stood at 0.003 µM in series [2], 0.014 µM in series [3] and 0.022 µM in series [5]. The half-life in series [4] was 3 h; in series [11] it was 1.9 h. Moreover, the Tmax in [6] was 6.17 h. Also, the clearance in [8] is 12.8 mL/min/kg. Besides, in series [9], the highest concentration (Cmax) was 660 ng/mL. The Papp in series [10] is 5.43 ×10⁻⁶ cm/s. This compound also showed an AUC(0-inf) in [12] of 7200 ng·h/mL. In series [13], the bioavailability is 86%.
